One experiment has as its target ABCB1 (Homo sapiens, UniProt P08183). Briefly: vanadate-sensitive ATPase stimulation in membrane vesicles. It counts as biochemical.
In the next experiment the target is T1, ABCG2 (Homo sapiens, UniProt Q9UNQ0).
T1 sequence (Q9UNQ0 1-655): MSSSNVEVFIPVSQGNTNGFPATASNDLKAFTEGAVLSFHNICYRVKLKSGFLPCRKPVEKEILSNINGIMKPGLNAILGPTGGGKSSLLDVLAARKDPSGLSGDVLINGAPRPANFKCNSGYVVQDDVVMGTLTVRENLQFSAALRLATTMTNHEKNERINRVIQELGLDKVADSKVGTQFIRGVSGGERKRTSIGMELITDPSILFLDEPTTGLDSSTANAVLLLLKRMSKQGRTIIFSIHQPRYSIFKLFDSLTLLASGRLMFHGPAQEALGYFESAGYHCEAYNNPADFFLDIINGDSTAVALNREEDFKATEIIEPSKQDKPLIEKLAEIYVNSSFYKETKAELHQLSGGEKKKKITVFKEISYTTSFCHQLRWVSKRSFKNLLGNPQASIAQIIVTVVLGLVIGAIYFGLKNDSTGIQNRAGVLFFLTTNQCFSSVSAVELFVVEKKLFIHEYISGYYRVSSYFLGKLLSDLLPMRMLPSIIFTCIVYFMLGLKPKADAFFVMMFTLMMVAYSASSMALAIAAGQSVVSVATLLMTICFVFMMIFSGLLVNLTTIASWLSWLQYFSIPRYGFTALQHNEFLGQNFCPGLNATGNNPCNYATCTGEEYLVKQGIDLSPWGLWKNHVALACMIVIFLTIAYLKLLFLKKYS
The description is as above. It counts as biochemical.

One compound from paper PMC3078184 (Cancer research, 2011) can be followed below.

ABCB1, sequence (P08183 whole entry): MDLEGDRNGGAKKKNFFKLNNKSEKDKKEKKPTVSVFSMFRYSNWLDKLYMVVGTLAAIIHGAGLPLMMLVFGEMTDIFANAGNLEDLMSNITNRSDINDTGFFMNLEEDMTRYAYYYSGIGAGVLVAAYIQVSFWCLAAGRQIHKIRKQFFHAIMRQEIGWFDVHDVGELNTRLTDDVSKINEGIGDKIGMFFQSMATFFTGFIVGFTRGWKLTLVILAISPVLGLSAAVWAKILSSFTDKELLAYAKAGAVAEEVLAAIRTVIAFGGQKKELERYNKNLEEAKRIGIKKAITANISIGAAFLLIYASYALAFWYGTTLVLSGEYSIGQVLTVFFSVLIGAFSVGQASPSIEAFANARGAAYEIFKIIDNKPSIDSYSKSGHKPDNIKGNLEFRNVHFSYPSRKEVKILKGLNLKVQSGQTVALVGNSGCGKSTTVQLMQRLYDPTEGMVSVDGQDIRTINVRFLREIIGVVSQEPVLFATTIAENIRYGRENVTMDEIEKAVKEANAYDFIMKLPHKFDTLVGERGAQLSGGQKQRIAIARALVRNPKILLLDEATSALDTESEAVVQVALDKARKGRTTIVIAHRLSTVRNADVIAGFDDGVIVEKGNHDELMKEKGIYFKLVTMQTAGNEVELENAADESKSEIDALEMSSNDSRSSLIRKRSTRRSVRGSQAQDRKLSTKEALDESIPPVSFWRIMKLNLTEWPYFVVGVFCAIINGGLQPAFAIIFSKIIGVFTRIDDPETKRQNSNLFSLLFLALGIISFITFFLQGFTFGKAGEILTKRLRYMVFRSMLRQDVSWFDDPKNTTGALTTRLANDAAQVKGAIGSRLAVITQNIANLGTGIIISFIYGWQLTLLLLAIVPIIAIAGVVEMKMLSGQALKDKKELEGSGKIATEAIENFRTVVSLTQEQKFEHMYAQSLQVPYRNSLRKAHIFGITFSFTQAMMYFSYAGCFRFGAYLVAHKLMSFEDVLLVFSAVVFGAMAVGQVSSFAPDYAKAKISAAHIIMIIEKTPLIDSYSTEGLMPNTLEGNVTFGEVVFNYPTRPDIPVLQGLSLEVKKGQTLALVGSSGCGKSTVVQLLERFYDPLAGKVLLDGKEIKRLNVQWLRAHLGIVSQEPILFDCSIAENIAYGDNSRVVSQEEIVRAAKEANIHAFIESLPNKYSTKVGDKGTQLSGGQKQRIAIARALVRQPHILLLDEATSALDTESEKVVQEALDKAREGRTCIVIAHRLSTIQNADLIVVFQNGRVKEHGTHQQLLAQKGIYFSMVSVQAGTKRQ

In the case of `CCCc1nn(C)c2c(=O)[nH]c(-c3cc(S(=O)(=O)N4CCN(C)CC4)ccc3OCC)nc12` [Sildenafil], the values for the EC50 on ABCB1 and at ABCG2 were 5 to 10 µM and 250 to 500 nM, respectively.

One may read the EC50 as the concentration that produces a half-maximal response. Low readings indicate a more potent agent, high ones a less potent agent.
